These results are taken from patent publication US9079897B2, “Imidazo-pyridine derivatives as activin-like receptor kinase (ALK4 or ALK5) inhibitors” (NOVARTIS AG, priority 2008, dated 2015).

For data set [1], the target named is T1, human ALK5 (kinase domain, ALK5 T204D) (Homo sapiens, UniProt P36897, T204D).
T1 construct: The kinase domain of human ALK5 (amino acids 200-503); made in house; host or cells: insect cells (baculovirus expression)
T1 sequence (P36897 200-503 T204D): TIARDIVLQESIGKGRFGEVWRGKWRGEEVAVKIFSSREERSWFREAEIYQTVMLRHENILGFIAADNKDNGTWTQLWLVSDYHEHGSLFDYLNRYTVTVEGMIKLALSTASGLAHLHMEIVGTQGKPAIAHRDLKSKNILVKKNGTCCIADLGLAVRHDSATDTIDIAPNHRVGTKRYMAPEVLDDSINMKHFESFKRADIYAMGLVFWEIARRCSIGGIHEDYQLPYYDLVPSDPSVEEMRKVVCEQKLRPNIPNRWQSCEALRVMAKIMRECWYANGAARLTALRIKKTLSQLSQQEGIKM
As to the kind of experiment: ALK5 kinase activity, [33P] phosphate incorporation into casein. Type of data set: biochemical. To be noted: casein substrate. The protocol:
The kinase activity of ALK5 is assessed by measuring radiolabelled phosphate [33P] incorporation in to the generic substrate, casein. The kinase domain of human ALK5 (amino acids 200-503) is fused to an N-terminal histidine tag. The kinase activity of ALK5 is rendered constitutive via point mutation at amino acid 204 (threonine to aspartate modification, ALK5 T204D) and the kinase construct is engineered to be expressed from a baculovirus expression construct in insect cells. The purified, recombinantly-expressed histidine-tagged ALK5 T204D protein is dissolved at 5.4 mg/ml in 50 mM Tris-HCl pH 8.0, 150 mM NaCl, 5 mM DTT. ALK5 T204D is dissolved to 2.5 μg/ml in assay buffer (Assay buffer: 20 mM Tris-HCl pH 7.4, 10 mM MgCl2, 2 mM MnCl2) on the day of use.
Test compounds and reference compounds are dissolved in assay buffer without DTT containing 5% (v/v) DMSO. Stock solutions of test and reference compounds are diluted in assay buffer with DTT (1.25 mM) containing 4.5% (v/v) DMSO. 10 μl of test or reference compound are added to the appropriate wells of 96 well U-bottomed plate. Total enzyme activity is determined by measuring ALK5 T204D activity in the absence of ALK5 kinase inhibitor reference compounds. Non-specific binding (NSB) is determined by measuring the activity of ALK5 T204D in the presence of ALK5 kinase inhibitor reference compounds. 10 μl of dephosphorylated casein stock solution (dephosphorylated casein is dissolved in ddH2O at 20 mg/ml) is added per well (200 μg/well final assay concentration). 20 μl of ALK5 T204D (2.5 μg/ml solution) is added per well (50 ng/well final assay concentration). The plates are left to incubate at room temperature for 10 minutes.
10 μl of ATP mix is added to the well to initiate the reaction (0.66 nM [^33P]ATP/1 μM unlabelled ATP/well final assay concentration). The ATP mix is prepared as follows, unlabelled ATP (3 mM) is dissolved in ddH2O and pH adjusted to 7.4. The stock concentration of [^33P]ATP is 10 μCi/μl. The appropriate volume of [^33P]ATP is added to unlabelled ATP solution such that the final assay concentration per well is 0.1 μCi. Following addition of the ATP mix, the plates are incubated at room temperature for 50 minutes. The kinase reaction is terminated by the addition of 50 μL Stop Buffer (20 mM Tris-HCl pH 7.4, 10 mM EDTA).
75 μl/well from the reaction plate is transferred to a Multiscreen-IP plate (MultiScreen-IP plates are prepared by added 50 μL of 70% (v/v) ethanol per well and incubated for 5 minutes at room temperature. The ethanol is removed by aspiration via a MultiScreen HTS Vaccum Manifold unit (Millipore, Cat no: MSVMHT500). The plates are washed twice by adding 200 μl/well ddH2O). The MultiScreen-IP plate is incubated at room temperature for 30 minutes to allowing binding of casein to the plate. The MultiScreen-IP plates are washed three times by adding 200 μl/well 100 mM phosphoric acid solution and the gasket is carefully removed from the back of the MultiScreen-IP plate and the plate dried in the oven for 30 minutes. The MultiScreen-IP plate is backsealed, 50 μL of MICROSCINT™20 is added, then the plates are topsealed and radiolabelled casein detected and quantified on a TOPCOUNT™ plate-reader using the ^33P scintillation protocol.

Data set [2] relates to dimethylnitrosamine induced liver fibrosis. To be noted: rat, cited from earlier work.
Data set [3] deals with bleomycin-induced pulmonary fibrosis. To be noted: bleomycin-treated rats; cited from earlier work.
Where [4] appears, read: given therapeutically, dimethylnitrosamine induced liver fibrosis.

In data set [1], `O[C@H]1CCC[C@H](Nc2ccc3ncn(-c4ccnc(-c5ccc(F)cc5)c4)c3n2)C1` (racemic) [Example 1.9, (1SR, 3SR)-3-{3-[2-(4-Fluorophenyl)-pyridin-4-yl)-3H-imidazo[4,5-b]pyridin-5-ylamino}-cyclohexanol] returned a half-inhibitory concentration (IC50) of 318 nM.

In data set [1], `OC1CCC(Nc2ccc3ncn(-c4ccnc(-c5ccoc5)c4)c3n2)CC1` (stereo not shown) [Example 1.1, 4-[3-(2-Furan-3-yl-pyridin-4-yl)-3H-imidazo[4,5-b]pyridin-5-ylamino]-cyclohexanol] yielded an IC50 of 13 nM. For the molecule `c1ccc(-c2cc(-c3cn[nH]c3-c3ccccn3)ccn2)cc1` [GW6604], the side effects entry in data set [2] (3 weeks treatment) is listed as “no obvious side effects”. Further, in data set [2] (setting [4]), the “inhibition of extracellular matrix deposition” value is given as 60% and the “prevention of death rate” value is listed as 40%.

The molecule `Cc1ccn(-c2cc(-n3cnc4ccc(NC5CCCC(O)C5)nc43)ccn2)n1` (stereo not drawn) [Example 1.13, (1SR,3RS)-3-{3-[2-(3-Methyl-pyrazol-1-yl)pyridine-4-yl]-3H-imidzo[4,5-b]pyridin-5-ylamino}-cyclohexanol] yielded an IC50 in data set [1] of 38 nM.

The molecule `O[C@H]1CCC[C@@H](Nc2ccc3ncn(-c4ccnc(-c5ccoc5)c4)c3n2)C1` (racemic) [Example 1.5, (1SR, 3RS)-3-[3-(2-Furan-3-yl-pyridin-4-yl)-3H-imidazo[4,5-b]pyridin-5-ylamino]-cyclohexanol] came in with an IC50 in data set [1] of 6 nM. On the same count and under the same terms, the figure for `O[C@H]1CCC[C@@H](Nc2ccc3ncn(-c4ccnc(-n5cccn5)c4)c3n2)C1` (racemic) [Example 1.17, (1SR,3RS)-3-[3-(2-Pyrazol-1-yl-pyridine-4-yl)-3H-imidazo[4,5-b]pyridin-5-ylamino]-cyclohexanol] is 56 nM.

B1: follistatin: an antagonist of activin signalling (protein, UniProt P19883 30-344, looked up)
Follistatin: GNCWLRQAKNGRCQVLYKTELSKEECCSTGRLSTSWTEEDVNDNTLFKWMIFNGGAPNCIPCKETCENVDCGPGKKCRMNKKNKPRCVCAPDCSNITWKGPVCGLDGKTYRNECALLKARCKEQPELEVQYQGRCKKTCRDVFCPGSSTCVVDQTNNAYCVTCNRICPEPASSEQYLCGNDGVTYSSACHLRKATCLLGRSIGLAYEGKCIKAKSCEDIQCTGGKKCLWDFKVGRGRCSLCDELCPDSKSDEPVCASDNATYASECAMKEAACSSGVLLEVKHSGSCNSISEDTEEEEEDEDQDYSFPISSILEW
On to B1, for which, in data set [3], the lung fibrosis result is reported as “attenuated lung fibrosis”; the “number of macrophages and neutrophils in bronchoalveolar lavage” value is listed as “significantly reduced”.

The IC50 is the concentration that inhibits the measured activity by half. A low value points to higher potency.
